In ChEMBL document CHEMBL1201862, “PubChem BioAssay data set” (2004):
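The compound was tested at five concentrations on cells cultured in 96-well plates, with a 48-hour exposure period. Abbreviation: GI50, concentration required for 50% inhibition of growth.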 Calls of active or inactive are those of the source. Cut-off read from the data, not from the text of the source: active = GI50 up to about 1.1 µM and inactive = higher.

Columns and labels:
Test in all cases: NCI-60 cell line screen, 48 h
786-0 = test system: 786-0
A498 = test system: A498
A549 = test system: A549
ACHN = test system: ACHN
CAKI-1 = test system: CAKI-1
CCRF-CEM = test system: CCRF-CEM
DLD-1 = test system: DLD-1
DMS-114 = test system: DMS-114
DMS-273 = test system: DMS-273
EKVX = test system: EKVX
HCC 2998 = test system: HCC 2998
HCT-116 = test system: HCT-116
HCT-15 = test system: HCT-15
HL-60 = test system: HL-60
HOP-92 = test system: HOP-92
HT-29 = test system: HT-29
IGROV-1 = test system: IGROV-1
K562 = test system: K562
KM-20L2 = test system: KM-20L2
LOX IMVI = test system: LOX IMVI
LXFL 529 = test system: LXFL 529
M14 = test system: M14
M19-MEL = test system: M19-MEL
MOLT-4 = test system: MOLT-4
Malme-3M = test system: Malme-3M
NCI-H226 = test system: NCI-H226
NCI-H23 = test system: NCI-H23
NCI-H460 = test system: NCI-H460
NCI-H522 = test system: NCI-H522
OVCAR-3 = test system: OVCAR-3
OVCAR-4 = test system: OVCAR-4
OVCAR-5 = test system: OVCAR-5
OVCAR-8 = test system: OVCAR-8
RPMI-8226 = test system: RPMI-8226
RXF 393 = test system: RXF 393
SF-268 = test system: SF-268
SF-295 = test system: SF-295
SF-539 = test system: SF-539
SK-MEL-28 = test system: SK-MEL-28
SK-MEL-2 = test system: SK-MEL-2
SK-MEL-5 = test system: SK-MEL-5
SN12C = test system: SN12C
SNB-19 = test system: SNB-19
SNB-75 = test system: SNB-75
SNB-78 = test system: SNB-78
SR = test system: SR
SW-620 = test system: SW-620
TK-10 = test system: TK-10
U-251 = test system: U-251
UACC-257 = test system: UACC-257
UACC-62 = test system: UACC-62
UO-31 = test system: UO-31
XF498 = test system: XF498
COLO 205 = test system: COLO 205
HOP-62 = test system: HOP-62
KM12 = test system: KM12
SK-OV-3 = test system: SK-OV-3

Measured: GI50

CCOc1ccc(NC2=NC(=O)C(CC(=O)Nc3ccccc3[N+](=O)[O-])S2)cc1 (stereo unspecified)
> 100 µM: HCT-15
inactive: 786-0 > 100 µM | A498 > 100 µM | A549 > 100 µM | ACHN > 100 µM | CAKI-1 > 100 µM | CCRF-CEM > 100 µM | DLD-1 > 100 µM | DMS-114 > 100 µM | DMS-273 > 100 µM | EKVX > 100 µM | HCC 2998 > 100 µM | HCT-116 > 100 µM | HL-60 > 100 µM | HOP-92 > 100 µM | HT-29 > 100 µM | IGROV-1 > 100 µM | K562 > 100 µM | KM-20L2 > 100 µM | LOX IMVI > 100 µM | LXFL 529 > 100 µM | M14 > 100 µM | M19-MEL > 100 µM | MOLT-4 > 100 µM | Malme-3M > 100 µM | NCI-H226 > 100 µM | NCI-H23 > 100 µM | NCI-H460 > 100 µM | NCI-H522 > 100 µM | OVCAR-3 > 100 µM | OVCAR-4 > 100 µM | OVCAR-5 > 100 µM | OVCAR-8 > 100 µM | RPMI-8226 > 100 µM | RXF 393 > 100 µM | SF-268 > 100 µM | SF-295 > 100 µM | SF-539 > 100 µM | SK-MEL-28 > 100 µM | SK-MEL-2 > 100 µM | SK-MEL-5 > 100 µM | SN12C > 100 µM | SNB-19 > 100 µM | SNB-75 > 100 µM | SNB-78 > 100 µM | SR > 100 µM | SW-620 > 100 µM | TK-10 > 100 µM | U-251 > 100 µM | UACC-257 > 100 µM | UACC-62 94 µM | UO-31 > 100 µM | XF498 > 100 µM

CCCCc1c2c(nc3c1CCC/C3=C\c1ccccc1)/C(=C/c1ccccc1)CCC2
> 100 µM: HCT-15
inactive: 786-0 > 100 µM | A549 > 100 µM | ACHN > 100 µM | CCRF-CEM > 100 µM | COLO 205 > 100 µM | DMS-114 > 100 µM | DMS-273 > 100 µM | EKVX > 100 µM | HCC 2998 > 100 µM | HCT-116 > 100 µM | HL-60 > 100 µM | HOP-62 > 100 µM | HT-29 > 100 µM | IGROV-1 > 100 µM | K562 > 100 µM | KM-20L2 > 100 µM | KM12 > 100 µM | LOX IMVI > 100 µM | LXFL 529 > 100 µM | M14 > 100 µM | M19-MEL > 100 µM | MOLT-4 > 100 µM | Malme-3M > 100 µM | NCI-H226 > 100 µM | NCI-H23 > 100 µM | NCI-H460 > 100 µM | NCI-H522 > 100 µM | OVCAR-3 > 100 µM | OVCAR-8 > 100 µM | RPMI-8226 > 100 µM | SF-268 > 100 µM | SF-295 > 100 µM | SF-539 > 100 µM | SK-MEL-28 > 100 µM | SK-MEL-5 > 100 µM | SK-OV-3 > 100 µM | SN12C > 100 µM | SNB-19 > 100 µM | SR > 100 µM | SW-620 > 100 µM | TK-10 > 100 µM | U-251 > 100 µM | UACC-257 > 100 µM | UACC-62 > 100 µM | UO-31 > 100 µM | XF498 > 100 µM

Cc1cc(N(CCC#N)CCC#N)ccc1/C=C1N=C(/C=C/c2ccccc2)OC(=O)N\1
inactive: 786-0 37.8 µM | A498 > 100 µM | A549 > 100 µM | ACHN > 100 µM | CAKI-1 > 100 µM | CCRF-CEM > 100 µM | COLO 205 > 100 µM | DLD-1 > 100 µM | DMS-114 > 100 µM | DMS-273 > 100 µM | EKVX > 100 µM | HCC 2998 > 100 µM | HCT-116 > 100 µM | HL-60 > 100 µM | HOP-62 > 100 µM | HT-29 > 100 µM | IGROV-1 > 100 µM | K562 > 100 µM | KM-20L2 > 100 µM | KM12 > 100 µM | LOX IMVI > 100 µM | LXFL 529 > 100 µM | M14 > 100 µM | M19-MEL > 100 µM | MOLT-4 > 100 µM | Malme-3M > 100 µM | NCI-H226 33 µM | NCI-H23 > 100 µM | NCI-H460 > 100 µM | NCI-H522 > 100 µM | OVCAR-3 81.5 µM | OVCAR-5 > 100 µM | OVCAR-8 > 100 µM | RPMI-8226 > 100 µM | RXF 393 91.8 µM | SF-268 > 100 µM | SF-295 7.41 µM | SF-539 > 100 µM | SK-MEL-28 > 100 µM | SK-MEL-2 > 100 µM | SK-MEL-5 > 100 µM | SK-OV-3 92.3 µM | SN12C > 100 µM | SNB-19 > 100 µM | SNB-75 31.3 µM | SNB-78 43.3 µM | SW-620 > 100 µM | TK-10 > 100 µM | U-251 61.5 µM | UACC-257 > 100 µM | UACC-62 > 100 µM | UO-31 > 100 µM | XF498 > 100 µM
> 100 µM: HCT-15

CCOc1ccc(NC(=O)CC2SC(Nc3ccc(C)cc3C)=NC2=O)cc1 (stereo unspecified)
> 100 µM: HCT-15
inactive: 786-0 > 100 µM | A498 > 100 µM | A549 > 100 µM | ACHN > 100 µM | CAKI-1 > 100 µM | CCRF-CEM 29.2 µM | DLD-1 > 100 µM | DMS-273 > 100 µM | EKVX > 100 µM | HCC 2998 > 100 µM | HCT-116 > 100 µM | HL-60 43.8 µM | HOP-92 > 100 µM | HT-29 > 100 µM | IGROV-1 > 100 µM | K562 52 µM | KM-20L2 > 100 µM | LOX IMVI > 100 µM | LXFL 529 66.2 µM | M14 > 100 µM | M19-MEL > 100 µM | MOLT-4 21.4 µM | Malme-3M > 100 µM | NCI-H226 84.3 µM | NCI-H23 > 100 µM | NCI-H460 > 100 µM | NCI-H522 5.38 µM | OVCAR-3 48.8 µM | OVCAR-4 90.8 µM | OVCAR-5 > 100 µM | OVCAR-8 89.1 µM | RPMI-8226 29.9 µM | RXF 393 > 100 µM | SF-268 43.6 µM | SF-295 > 100 µM | SF-539 26.7 µM | SK-MEL-28 > 100 µM | SK-MEL-2 > 100 µM | SK-MEL-5 > 100 µM | SN12C > 100 µM | SNB-19 54.3 µM | SNB-75 49.2 µM | SNB-78 > 100 µM | SR 29.5 µM | SW-620 > 100 µM | TK-10 > 100 µM | U-251 36 µM | UACC-257 85.7 µM | UACC-62 54.2 µM | UO-31 > 100 µM | XF498 50.4 µM
